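Where inhibition never reached the appropriate level, the endpoint shown equals the highest concentration tested. Otherwise, values were interpolated linearly from a five-concentration, 48-hour dose response in 96-well plates. Definition used: TGI = concentration required for complete inhibition of growth.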
Legend:
Assay in all cases: NCI-60 cell line screen, 48 h
[1] = system: UO-31 renal
[2] = system: UACC-257 melanoma
[3] = system: MDA-N
[4] = system: SK-OV-3 ovarian
[5] = system: COLO 205 colon
[6] = system: MCF7 breast
[7] = system: HOP-62 NSCLC
[8] = system: PC-3 prostate
[9] = system: HCC-2998 colon
[10] = system: HCT-15 colon
[11] = system: MDA-MB-435
[12] = system: T-47D breast
[13] = system: HS 578T breast
[14] = system: A549 NSCLC
[15] = system: HL-60(TB) leukemia
[16] = system: SK-MEL-5 melanoma
[17] = system: HT29 colon
[18] = system: LOX IMVI melanoma
[19] = system: NCI-H460 lung
[20] = system: OVCAR-8 ovarian
[21] = system: SN12C renal
[22] = system: UACC-62 melanoma
[23] = system: NCI-H226 lung
[24] = system: HCT-116 colon
[25] = system: EKVX NSCLC
[26] = system: CCRF-CEM leukemia
[27] = system: OVCAR-5 ovarian
[28] = system: OVCAR-4 ovarian
[29] = system: ACHN renal
[30] = system: OVCAR-3 ovarian
[31] = system: NCI-H23 lung
[32] = system: DU-145 prostate
[33] = system: IGROV1 ovarian
[34] = system: TK-10 renal
[35] = system: SF-268 CNS
[36] = system: RPMI-8226 leukemia
[37] = system: SF-539 CNS
[38] = system: M14 melanoma
[39] = system: NCI/ADR-RES ovarian
[40] = system: CAKI-1 renal
[41] = system: BT-549 breast
[42] = system: K-562 leukemia
[43] = system: MOLT-4 leukemia
[44] = system: SR leukemia
[45] = system: SNB-75 CNS
[46] = system: SW-620 colon
[47] = system: A498 renal
[48] = system: KM12 colon
[49] = system: NCI-H522 lung
[50] = system: MDA-MB-231 breast
[51] = system: 786-0 renal
[52] = system: SK-MEL-2 melanoma
[53] = system: U251 CNS
[54] = system: SF-295 CNS
[55] = system: MALME-3M melanoma
[56] = system: SNB-19 CNS
[57] = system: HOP-92 NSCLC
[58] = system: RXF 393 renal
[59] = system: SK-MEL-28 melanoma

In the case of `NC(=O)c1nnc2cc(F)c(F)cc2c1N`, the TGI [1] is reported as > 100 µM, the TGI [2] is reported as > 100 µM and the TGI [3] is reported as > 100 µM. The TGI [4] was 82.4 µM, the TGI [5] was > 100 µM and the TGI [6] was > 100 µM. For the same molecule, the TGI [7] was 39.6 µM, the TGI [8] was > 100 µM and the TGI [9] was > 100 µM. The TGI [10] was > 100 µM, the TGI [11] was > 100 µM and the TGI [12] was > 100 µM. The TGI [13] was 84.4 µM, the TGI [14] was > 100 µM and the TGI [15] was > 100 µM. For the same molecule, the TGI [16] was > 100 µM, the TGI [17] was > 100 µM and the TGI [18] was > 100 µM. The TGI [19] was > 100 µM, the TGI [20] was > 100 µM and the TGI [21] was > 100 µM. For the same molecule, the TGI [22] was > 100 µM, the TGI [23] was 73.6 µM and the TGI [24] was > 100 µM. The TGI [25] was > 100 µM, the TGI [26] was > 100 µM and the TGI [27] was > 100 µM. The TGI [28] was > 100 µM, the TGI [29] was > 100 µM and the TGI [30] was > 100 µM. For the same molecule, the TGI [31] was > 100 µM, the TGI [32] was > 100 µM and the TGI [33] was > 100 µM. The TGI [34] was > 100 µM, the TGI [35] was 49.9 µM and the TGI [36] was > 100 µM. For the same molecule, the TGI [37] was > 100 µM, the TGI [38] was > 100 µM and the TGI [39] was > 100 µM. The TGI [40] was > 100 µM, the TGI [41] was 45.6 µM and the TGI [42] was > 100 µM. For the same molecule, the TGI [43] was > 100 µM, the TGI [44] was > 100 µM and the TGI [45] was 31.8 µM. The TGI [46] was > 100 µM, the TGI [47] was > 100 µM and the TGI [48] was > 100 µM. The TGI [49] was 56.8 µM, the TGI [50] was > 100 µM and the TGI [51] was > 100 µM. It also gave a TGI [52] of 38.5 µM, a TGI [53] of 69.7 µM and a TGI [54] of 64.5 µM. The TGI [55] was > 100 µM and the TGI [56] was > 100 µM.
For `COc1ccc(Oc2nc3cc(C(F)(F)F)ccc3nc2C(C)C)cc1`, the TGI [1] was 95 µM, the TGI [2] was 73.9 µM and the TGI [3] was > 100 µM. For the same molecule, the TGI [4] was > 100 µM, the TGI [5] was 30.2 µM and the TGI [6] was 39.5 µM. The TGI [7] was > 100 µM, the TGI [8] was > 100 µM and the TGI [9] was 41.5 µM. For the same molecule, the TGI [10] was 59.4 µM, the TGI [11] was > 100 µM and the TGI [12] was 54.4 µM. The TGI [13] was > 100 µM, the TGI [14] was > 100 µM and the TGI [15] was 37.7 µM. It also gave a TGI [16] of 52.2 µM, a TGI [57] of 54.9 µM and a TGI [17] of 44.6 µM. The TGI [18] was 30.5 µM, the TGI [19] was 68.8 µM and the TGI [20] was 94.5 µM. The TGI [21] was 59.7 µM, the TGI [22] was > 100 µM and the TGI [23] was 49.6 µM. For the same molecule, the TGI [24] was > 100 µM, the TGI [25] was 50.1 µM and the TGI [26] was > 100 µM. For the same molecule, the TGI [27] was 77.4 µM, the TGI [58] was 40.7 µM and the TGI [28] was > 100 µM. For the same molecule, the TGI [29] was 90.4 µM, the TGI [30] was 93.3 µM and the TGI [31] was 52.6 µM. The TGI [32] was > 100 µM, the TGI [33] was 82.7 µM and the TGI [34] was > 100 µM. For the same molecule, the TGI [35] was > 100 µM, the TGI [36] was 42.4 µM and the TGI [59] was > 100 µM. For the same molecule, the TGI [37] was > 100 µM, the TGI [38] was > 100 µM and the TGI [39] was 44.1 µM. The TGI [40] was > 100 µM, the TGI [41] was 65.8 µM and the TGI [42] was 86.7 µM. It also gave a TGI [43] of 36.9 µM, a TGI [44] of 36.6 µM and a TGI [45] of 95.7 µM. For the same molecule, the TGI [46] was 84.2 µM, the TGI [47] was 58.3 µM and the TGI [48] was > 100 µM. The TGI [49] was 41.3 µM, the TGI [50] was 79 µM and the TGI [51] was > 100 µM. The TGI [52] was 38.5 µM, the TGI [53] was 50.8 µM and the TGI [54] was 51 µM. For the same molecule, the TGI [55] was 72.4 µM and the TGI [56] was > 100 µM.
